Experiments:
[1] = biological target: B. taurus (heart) complex I (Bos taurus, UniProt P03887+P17694+P42026); experiment: biochemical; format: biochemical; settings: heart mitochondria; read-out: B. taurus Complex I IC50
Procedure, shortened: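 Complex I activity followed as DCIP reduction (600 nm, 30 s reads, 15 min) with 80 μM NADH and 60 μM decylubiquinone in 25 mM KPi pH 7.5 containing 2 μM antimycin A and 2 mM KCN. Freeze-thawed mouse or bovine heart mitochondria at 0.2 mg/mL; initial-rate percent of solvent control, single-point 100 μM or dose-response.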

L1 wild-type C. elegans = experiment: whole plant or invertebrate; settings: Caenorhabditis elegans, 15 h, read-out: C. elegans KCN Survival Assay LC50

Sequence of B. taurus (heart) complex I (P03887 whole entry): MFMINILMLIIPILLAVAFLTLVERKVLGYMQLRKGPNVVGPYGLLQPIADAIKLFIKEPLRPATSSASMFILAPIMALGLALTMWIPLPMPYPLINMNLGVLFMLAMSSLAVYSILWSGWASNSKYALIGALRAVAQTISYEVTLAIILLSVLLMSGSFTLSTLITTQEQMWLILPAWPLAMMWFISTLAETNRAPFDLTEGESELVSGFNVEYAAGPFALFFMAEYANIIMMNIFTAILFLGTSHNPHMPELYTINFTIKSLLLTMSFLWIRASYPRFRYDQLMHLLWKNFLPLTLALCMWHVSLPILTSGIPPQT
Sequence of B. taurus (heart) complex I (P17694 34-463): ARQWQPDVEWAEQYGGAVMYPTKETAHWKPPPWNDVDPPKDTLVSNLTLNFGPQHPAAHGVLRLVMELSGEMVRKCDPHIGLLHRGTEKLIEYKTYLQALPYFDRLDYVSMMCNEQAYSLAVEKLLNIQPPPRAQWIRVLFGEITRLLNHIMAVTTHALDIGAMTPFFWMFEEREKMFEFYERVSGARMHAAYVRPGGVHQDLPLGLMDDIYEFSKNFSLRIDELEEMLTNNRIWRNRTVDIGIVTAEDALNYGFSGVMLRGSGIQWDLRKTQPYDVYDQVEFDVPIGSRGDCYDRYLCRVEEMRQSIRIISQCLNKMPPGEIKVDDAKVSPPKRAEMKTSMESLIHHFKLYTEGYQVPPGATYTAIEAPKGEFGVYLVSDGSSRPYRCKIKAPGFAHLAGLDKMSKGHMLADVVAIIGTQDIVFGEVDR
Sequence of B. taurus (heart) complex I (P42026 38-216): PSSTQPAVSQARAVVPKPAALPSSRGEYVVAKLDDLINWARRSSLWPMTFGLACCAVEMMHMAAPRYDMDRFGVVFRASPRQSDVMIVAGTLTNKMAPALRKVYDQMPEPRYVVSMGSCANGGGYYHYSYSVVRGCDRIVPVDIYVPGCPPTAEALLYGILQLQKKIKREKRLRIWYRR

Work on CC(C)(C)c1ccc(CCOc2ncnc3ccccc23)cc1 [Fenazaquin, reference compound] yielded an IC50 [1] of 24 nM and an LC50 (L1 wild-type C. elegans) of 500 nM.

Source: paper PMC11079024, “Identification of a family of species-selective complex I inhibitors as potential anthelmintics” (Nature Communications, 2024)
